In ChEMBL document CHEMBL5291721, “A preclinical secondary pharmacology resource illuminates target-adverse drug reaction associations of marketed drugs” (Nat Commun, 2023):

Key:
Adenosine receptor A2a = Adenosine receptor A2a (Homo sapiens, UniProt P29274)
[1] = biological target: T1, Alpha-2A adrenergic receptor (Homo sapiens, UniProt P08913); type: functional, cell-based
T1 sequence (P08913 whole entry): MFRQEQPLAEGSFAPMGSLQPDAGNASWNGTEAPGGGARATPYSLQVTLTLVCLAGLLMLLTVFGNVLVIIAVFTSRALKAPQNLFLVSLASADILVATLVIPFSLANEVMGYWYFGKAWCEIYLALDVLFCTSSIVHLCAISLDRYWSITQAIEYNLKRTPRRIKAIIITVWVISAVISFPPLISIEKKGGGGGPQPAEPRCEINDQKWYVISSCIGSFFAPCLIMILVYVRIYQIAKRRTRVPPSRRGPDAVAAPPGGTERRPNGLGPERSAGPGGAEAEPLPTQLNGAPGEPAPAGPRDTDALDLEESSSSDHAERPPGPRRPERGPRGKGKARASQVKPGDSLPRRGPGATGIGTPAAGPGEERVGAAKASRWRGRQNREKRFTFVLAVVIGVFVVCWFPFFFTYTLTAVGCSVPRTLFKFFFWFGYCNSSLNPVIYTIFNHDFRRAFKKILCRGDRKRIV

[2] = biological target: T2, Alpha-2C adrenergic receptor (Homo sapiens, UniProt P18825); type: functional
T2 sequence (P18825 whole entry): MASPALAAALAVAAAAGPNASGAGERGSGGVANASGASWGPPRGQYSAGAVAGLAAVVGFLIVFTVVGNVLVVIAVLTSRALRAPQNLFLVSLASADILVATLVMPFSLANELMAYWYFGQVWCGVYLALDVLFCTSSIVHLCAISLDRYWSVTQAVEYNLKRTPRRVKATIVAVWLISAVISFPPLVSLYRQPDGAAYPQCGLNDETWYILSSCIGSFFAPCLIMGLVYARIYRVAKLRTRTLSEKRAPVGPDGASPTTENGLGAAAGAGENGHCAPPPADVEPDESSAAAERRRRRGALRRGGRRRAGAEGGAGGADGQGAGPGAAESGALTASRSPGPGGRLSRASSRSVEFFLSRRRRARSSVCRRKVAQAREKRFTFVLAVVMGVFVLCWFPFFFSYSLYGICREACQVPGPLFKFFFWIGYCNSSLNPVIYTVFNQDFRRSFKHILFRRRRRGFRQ

[3] = biological target: T3, Type-1 angiotensin II receptor (Homo sapiens, UniProt P30556)
T3 sequence (P30556 whole entry): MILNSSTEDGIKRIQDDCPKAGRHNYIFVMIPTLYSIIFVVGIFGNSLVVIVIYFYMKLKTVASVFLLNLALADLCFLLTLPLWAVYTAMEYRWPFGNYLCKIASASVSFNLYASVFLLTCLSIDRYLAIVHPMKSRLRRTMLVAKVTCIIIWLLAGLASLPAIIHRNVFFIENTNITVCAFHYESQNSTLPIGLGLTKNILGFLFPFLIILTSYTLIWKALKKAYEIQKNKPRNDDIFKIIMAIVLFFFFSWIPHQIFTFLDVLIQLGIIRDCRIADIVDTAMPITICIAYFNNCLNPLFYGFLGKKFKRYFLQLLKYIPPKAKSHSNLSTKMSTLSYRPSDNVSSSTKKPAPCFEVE

[4] = biological target: Neuronal acetylcholine receptor subunit alpha-4 (Homo sapiens, UniProt P43681)
[5] = biological target: Gamma-aminobutyric acid receptor subunit alpha-1 (Rattus norvegicus, UniProt P62813); type: functional
[6] = biological target: 5-hydroxytryptamine receptor 2B (Homo sapiens, UniProt P41595); type: functional, cell-based
[7] = biological target: T4, 5-hydroxytryptamine receptor 3A (Homo sapiens, UniProt P46098); type: functional
T4 sequence (P46098 whole entry): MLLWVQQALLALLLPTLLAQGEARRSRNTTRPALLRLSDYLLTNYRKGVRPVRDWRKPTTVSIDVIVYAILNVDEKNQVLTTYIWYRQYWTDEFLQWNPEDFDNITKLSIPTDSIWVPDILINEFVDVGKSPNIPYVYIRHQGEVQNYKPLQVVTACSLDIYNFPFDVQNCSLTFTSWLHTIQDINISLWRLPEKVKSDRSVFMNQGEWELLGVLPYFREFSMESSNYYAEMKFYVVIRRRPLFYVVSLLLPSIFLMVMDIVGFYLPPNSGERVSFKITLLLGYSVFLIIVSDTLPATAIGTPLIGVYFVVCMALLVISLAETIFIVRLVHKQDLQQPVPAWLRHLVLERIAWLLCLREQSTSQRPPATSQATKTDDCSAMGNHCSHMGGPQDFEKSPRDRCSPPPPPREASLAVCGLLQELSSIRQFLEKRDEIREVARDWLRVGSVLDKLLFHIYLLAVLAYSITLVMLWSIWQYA

[8] = biological target: Voltage-gated inwardly rectifying potassium channel KCNH2 (Homo sapiens, UniProt Q12809); type: functional; details: read-out: AC50
Melanocortin receptor 3 = Melanocortin receptor 3 (Homo sapiens, UniProt P41968)
Motilin receptor = Motilin receptor (Homo sapiens, UniProt O43193)
[9] = biological target: 3',5'-cyclic-AMP phosphodiesterase 4D (Homo sapiens, UniProt Q08499); type: functional
[10] = biological target: T5, Equilibrative nucleoside transporter 1 (Homo sapiens, UniProt Q99808)
T5 sequence (Q99808 whole entry): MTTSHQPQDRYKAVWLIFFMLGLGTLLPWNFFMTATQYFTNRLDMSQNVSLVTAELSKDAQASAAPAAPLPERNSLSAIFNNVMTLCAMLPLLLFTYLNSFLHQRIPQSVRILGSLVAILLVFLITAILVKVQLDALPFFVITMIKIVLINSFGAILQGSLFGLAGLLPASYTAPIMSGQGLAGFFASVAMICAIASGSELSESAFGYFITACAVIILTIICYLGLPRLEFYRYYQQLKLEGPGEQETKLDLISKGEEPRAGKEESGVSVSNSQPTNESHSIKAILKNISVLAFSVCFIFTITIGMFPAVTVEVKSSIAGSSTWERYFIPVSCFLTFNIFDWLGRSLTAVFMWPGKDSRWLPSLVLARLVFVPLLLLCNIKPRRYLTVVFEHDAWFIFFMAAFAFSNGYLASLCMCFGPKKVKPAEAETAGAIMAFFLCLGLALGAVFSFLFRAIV

[11] = biological target: Sodium-dependent noradrenaline transporter (Homo sapiens, UniProt P23975)
[12] = biological target: cGMP-inhibited 3',5'-cyclic phosphodiesterase 3A (Homo sapiens, UniProt Q14432); type: functional
D(3) dopamine receptor = D(3) dopamine receptor (Homo sapiens, UniProt P35462)
Further: assay procedure not described here.

Chain of Motilin receptor (O43193 whole entry): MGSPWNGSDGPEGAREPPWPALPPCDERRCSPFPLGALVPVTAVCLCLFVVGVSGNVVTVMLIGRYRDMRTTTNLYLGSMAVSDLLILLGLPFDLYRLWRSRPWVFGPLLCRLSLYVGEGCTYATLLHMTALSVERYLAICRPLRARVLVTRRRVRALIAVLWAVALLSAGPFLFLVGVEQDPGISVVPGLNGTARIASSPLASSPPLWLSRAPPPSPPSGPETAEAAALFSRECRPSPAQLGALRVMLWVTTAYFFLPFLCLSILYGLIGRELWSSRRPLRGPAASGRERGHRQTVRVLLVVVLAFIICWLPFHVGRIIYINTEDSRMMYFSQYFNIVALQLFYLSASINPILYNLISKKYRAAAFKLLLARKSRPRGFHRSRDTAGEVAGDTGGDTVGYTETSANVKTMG
Chain of Adenosine receptor A2a (P29274 whole entry): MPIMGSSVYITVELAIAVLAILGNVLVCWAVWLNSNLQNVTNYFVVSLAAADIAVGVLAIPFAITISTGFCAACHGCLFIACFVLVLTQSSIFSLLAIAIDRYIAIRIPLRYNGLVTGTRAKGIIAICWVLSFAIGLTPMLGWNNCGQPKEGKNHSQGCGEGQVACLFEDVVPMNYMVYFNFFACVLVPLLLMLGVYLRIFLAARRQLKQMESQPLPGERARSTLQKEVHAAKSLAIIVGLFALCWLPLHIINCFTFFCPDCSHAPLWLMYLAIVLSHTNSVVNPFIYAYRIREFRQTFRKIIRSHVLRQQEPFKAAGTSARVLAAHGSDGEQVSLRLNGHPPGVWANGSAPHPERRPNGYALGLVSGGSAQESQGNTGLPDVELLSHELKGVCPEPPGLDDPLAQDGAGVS
Chain of Sodium-dependent noradrenaline transporter (P23975 whole entry): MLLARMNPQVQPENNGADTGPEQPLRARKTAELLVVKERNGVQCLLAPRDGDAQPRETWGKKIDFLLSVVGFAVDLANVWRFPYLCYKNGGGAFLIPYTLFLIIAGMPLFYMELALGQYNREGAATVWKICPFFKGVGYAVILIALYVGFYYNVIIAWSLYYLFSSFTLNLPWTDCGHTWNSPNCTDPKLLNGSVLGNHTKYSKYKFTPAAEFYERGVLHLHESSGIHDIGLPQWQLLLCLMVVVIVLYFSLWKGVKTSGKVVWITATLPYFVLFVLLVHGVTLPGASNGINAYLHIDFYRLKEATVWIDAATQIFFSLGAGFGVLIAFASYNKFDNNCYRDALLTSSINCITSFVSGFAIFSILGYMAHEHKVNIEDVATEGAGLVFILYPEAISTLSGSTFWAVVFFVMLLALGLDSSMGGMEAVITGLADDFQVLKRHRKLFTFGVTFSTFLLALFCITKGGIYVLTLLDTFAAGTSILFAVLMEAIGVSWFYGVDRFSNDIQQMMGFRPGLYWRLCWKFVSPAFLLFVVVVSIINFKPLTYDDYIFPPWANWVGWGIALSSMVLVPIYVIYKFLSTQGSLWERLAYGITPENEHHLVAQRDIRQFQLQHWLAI
Chain of Melanocortin receptor 3 (P41968 whole entry): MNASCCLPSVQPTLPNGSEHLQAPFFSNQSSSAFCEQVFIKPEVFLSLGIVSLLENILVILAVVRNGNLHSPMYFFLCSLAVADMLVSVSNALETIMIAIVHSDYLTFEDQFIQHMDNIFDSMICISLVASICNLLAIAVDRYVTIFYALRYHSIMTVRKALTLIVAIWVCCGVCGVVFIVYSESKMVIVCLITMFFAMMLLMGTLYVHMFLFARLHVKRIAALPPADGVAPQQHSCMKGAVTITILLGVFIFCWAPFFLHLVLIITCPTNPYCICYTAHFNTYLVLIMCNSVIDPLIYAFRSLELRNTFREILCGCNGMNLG
Chain of 3',5'-cyclic-AMP phosphodiesterase 4D (Q08499 whole entry): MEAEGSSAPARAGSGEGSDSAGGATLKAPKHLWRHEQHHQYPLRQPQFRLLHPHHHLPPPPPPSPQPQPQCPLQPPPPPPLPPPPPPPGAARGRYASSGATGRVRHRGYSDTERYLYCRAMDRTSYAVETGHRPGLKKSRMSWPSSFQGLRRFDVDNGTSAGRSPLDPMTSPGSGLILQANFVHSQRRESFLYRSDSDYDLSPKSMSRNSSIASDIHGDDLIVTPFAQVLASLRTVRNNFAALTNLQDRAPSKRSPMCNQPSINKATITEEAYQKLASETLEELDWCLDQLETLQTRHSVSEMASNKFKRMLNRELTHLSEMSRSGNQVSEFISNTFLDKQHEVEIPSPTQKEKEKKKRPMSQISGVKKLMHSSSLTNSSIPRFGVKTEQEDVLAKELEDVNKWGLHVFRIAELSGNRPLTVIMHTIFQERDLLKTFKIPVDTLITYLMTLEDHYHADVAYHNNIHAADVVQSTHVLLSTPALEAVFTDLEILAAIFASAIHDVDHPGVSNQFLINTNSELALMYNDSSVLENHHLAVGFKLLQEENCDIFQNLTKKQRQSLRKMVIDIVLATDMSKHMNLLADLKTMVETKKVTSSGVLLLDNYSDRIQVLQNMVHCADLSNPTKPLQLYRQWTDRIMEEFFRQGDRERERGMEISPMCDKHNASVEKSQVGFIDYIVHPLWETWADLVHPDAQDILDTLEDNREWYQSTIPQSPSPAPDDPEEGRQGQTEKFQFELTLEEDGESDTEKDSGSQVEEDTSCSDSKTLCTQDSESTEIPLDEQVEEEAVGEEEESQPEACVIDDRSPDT
Chain of D(3) dopamine receptor (P35462 whole entry): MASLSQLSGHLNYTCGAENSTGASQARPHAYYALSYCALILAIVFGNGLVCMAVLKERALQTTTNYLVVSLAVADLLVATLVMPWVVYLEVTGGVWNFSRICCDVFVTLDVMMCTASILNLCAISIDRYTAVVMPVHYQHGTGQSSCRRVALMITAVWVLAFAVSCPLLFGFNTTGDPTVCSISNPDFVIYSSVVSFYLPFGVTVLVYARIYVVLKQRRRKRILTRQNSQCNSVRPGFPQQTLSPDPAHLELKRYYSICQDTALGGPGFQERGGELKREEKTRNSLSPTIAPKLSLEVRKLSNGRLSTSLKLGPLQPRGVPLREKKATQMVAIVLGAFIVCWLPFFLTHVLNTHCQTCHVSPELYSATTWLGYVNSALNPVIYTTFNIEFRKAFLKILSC
Chain of Voltage-gated inwardly rectifying potassium channel KCNH2 (Q12809 whole entry): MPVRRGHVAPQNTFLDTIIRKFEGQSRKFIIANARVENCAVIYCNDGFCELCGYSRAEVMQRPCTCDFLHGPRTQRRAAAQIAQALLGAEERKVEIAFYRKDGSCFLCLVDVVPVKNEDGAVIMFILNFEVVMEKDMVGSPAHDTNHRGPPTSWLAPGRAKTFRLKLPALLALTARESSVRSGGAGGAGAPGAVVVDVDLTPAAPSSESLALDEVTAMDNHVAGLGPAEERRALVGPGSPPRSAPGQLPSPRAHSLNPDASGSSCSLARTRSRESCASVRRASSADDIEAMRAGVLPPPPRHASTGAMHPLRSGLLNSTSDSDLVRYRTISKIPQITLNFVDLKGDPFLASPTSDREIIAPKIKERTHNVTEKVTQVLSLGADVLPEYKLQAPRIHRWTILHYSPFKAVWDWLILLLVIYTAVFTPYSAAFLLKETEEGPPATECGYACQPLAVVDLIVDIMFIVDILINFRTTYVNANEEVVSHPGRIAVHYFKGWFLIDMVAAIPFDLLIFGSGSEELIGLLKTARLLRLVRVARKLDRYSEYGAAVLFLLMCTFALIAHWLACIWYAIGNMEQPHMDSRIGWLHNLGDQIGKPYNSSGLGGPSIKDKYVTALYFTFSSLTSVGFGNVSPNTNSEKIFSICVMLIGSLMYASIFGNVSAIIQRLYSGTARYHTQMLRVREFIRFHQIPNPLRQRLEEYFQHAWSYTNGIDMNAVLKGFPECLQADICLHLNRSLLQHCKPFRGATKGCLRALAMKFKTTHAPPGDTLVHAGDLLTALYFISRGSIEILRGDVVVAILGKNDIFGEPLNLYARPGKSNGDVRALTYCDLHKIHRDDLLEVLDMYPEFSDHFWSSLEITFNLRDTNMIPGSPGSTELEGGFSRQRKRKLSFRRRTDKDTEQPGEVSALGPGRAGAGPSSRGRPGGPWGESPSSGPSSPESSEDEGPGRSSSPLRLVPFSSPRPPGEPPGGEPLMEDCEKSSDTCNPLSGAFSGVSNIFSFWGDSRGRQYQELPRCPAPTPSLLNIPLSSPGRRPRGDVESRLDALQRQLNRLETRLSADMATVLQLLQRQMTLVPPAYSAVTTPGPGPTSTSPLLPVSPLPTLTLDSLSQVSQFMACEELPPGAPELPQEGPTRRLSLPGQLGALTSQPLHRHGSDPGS
Chain of Neuronal acetylcholine receptor subunit alpha-4 (P43681 whole entry): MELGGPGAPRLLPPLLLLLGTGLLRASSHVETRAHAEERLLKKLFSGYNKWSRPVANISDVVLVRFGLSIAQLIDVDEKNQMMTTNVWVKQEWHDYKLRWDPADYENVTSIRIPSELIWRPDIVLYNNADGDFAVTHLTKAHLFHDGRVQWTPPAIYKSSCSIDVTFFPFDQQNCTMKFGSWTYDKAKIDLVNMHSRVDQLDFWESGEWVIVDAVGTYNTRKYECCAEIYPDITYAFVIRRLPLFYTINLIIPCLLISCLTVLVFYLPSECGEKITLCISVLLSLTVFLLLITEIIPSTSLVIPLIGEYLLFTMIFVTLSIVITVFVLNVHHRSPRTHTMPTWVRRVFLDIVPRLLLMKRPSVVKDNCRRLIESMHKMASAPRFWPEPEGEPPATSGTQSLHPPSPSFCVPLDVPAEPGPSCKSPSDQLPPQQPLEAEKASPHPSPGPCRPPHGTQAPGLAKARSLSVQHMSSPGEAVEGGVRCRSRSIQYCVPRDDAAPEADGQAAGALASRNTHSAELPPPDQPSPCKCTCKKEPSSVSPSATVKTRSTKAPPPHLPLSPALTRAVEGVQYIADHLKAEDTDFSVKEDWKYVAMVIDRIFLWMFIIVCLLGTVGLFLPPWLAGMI

| Compound | AC50 (Adenosine receptor A2a) [µM] | AC50 [1] [µM] | AC50 [2] [µM] | AC50 [3] [µM] | AC50 [4] [µM] | AC50 [5] [µM] | AC50 [6] [µM] | AC50 [7] [µM] | AC50 [8] [µM] | AC50 (Melanocortin receptor 3) [µM] | AC50 (Motilin receptor) [µM] | AC50 [9] [µM] | AC50 [10] [µM] | AC50 [11] [µM] | AC50 [12] [µM] | AC50 (D(3) dopamine receptor) [µM] |
| --- | --- | --- | --- | --- | --- | --- | --- | --- | --- | --- | --- | --- | --- | --- | --- | --- |
| CC(C)C(=O)Nc1ccc([N+](=O)[O-])c(C(F)(F)F)c1 [FLUTAMIDE] | > 30 | > 10 | > 10 | > 10 | > 30 | > 10 | > 10 | > 30 | 2.53 | > 30 | > 30 | > 30 | > 10 | > 10 | > 10 | > 30 |
| C[C@@H]1O[C@@H]1P(=O)(O)O [FOSFOMYCIN] | > 10 | > 10 | > 10 | > 10 | > 10 | > 10 | > 10 | > 30 | > 30 | > 10 | > 10 | > 30 | > 10 | > 10 | > 30 | > 30 |
| COc1ccc2c(c1)C(=O)N(CCc1ccc(S(=O)(=O)NC(=O)NC3CCCCC3)cc1)C(=O)C2(C)C [GLIQUIDONE] | > 30 | > 30 | > 30 | > 30 | > 30 | > 30 | > 30 | > 30 | > 30 | > 30 | > 30 | 1.4 | > 30 | > 30 | 5.3 | > 30 |
| NS(=O)(=O)c1cc2c(cc1Cl)NCNS2(=O)=O [HYDROCHLOROTHIAZIDE] | > 30 | > 10 | > 10 | > 30 | > 10 | > 10 | > 10 | > 10 | > 30 | > 30 | > 10 | > 10 | > 30 | > 10 | > 30 | > 10 |
| CC(C)Cc1ccc(CC(=O)O)cc1 [IBUFENAC] | > 30 | > 30 | > 30 | > 30 | > 30 | > 30 | > 30 | > 30 | > 30 | > 30 | > 30 | > 30 | > 30 | > 30 | > 30 | > 30 |
| CC(C)NNC(=O)c1ccncc1 [IPRONIAZID] | > 30 | > 30 | > 30 | > 30 | > 30 | > 30 | > 30 | > 30 | > 30 | > 30 | > 30 | > 30 | > 30 | > 30 | > 30 | > 30 |
| NC[C@H]1O[C@H](O[C@H]2[C@H](O)[C@@H](O[C@H]3O[C@H](CO)[C@@H](O)[C@H](N)[C@H]3O)[C@H](N)C[C@@H]2N)[C@H](O)[C@@H](O)[C@@H]1O [KANAMYCIN] | > 10 | > 10 | > 30 | > 10 | > 10 | > 10 | > 10 | > 30 | > 30 | > 10 | > 10 | > 30 | > 10 | > 10 | > 30 | > 30 |
| CN1C(=O)CC(C)(c2ccccc2)C1=O (stereo unspecified) [METHSUXIMIDE] | > 10 | > 10 | > 10 | > 10 | > 10 | > 10 | > 10 | > 30 | > 30 | > 10 | > 10 | > 30 | > 10 | > 10 | > 30 | > 30 |
| C[C@H]1C[C@@H]2[C@H]([C@@H](O)C[C@@]3(C)[C@H]2CC[C@]3(O)C(=O)CO)[C@@]2(C)C=CC(=O)C=C12 [METHYLPREDNISOLONE] | > 10 | > 10 | > 30 | > 10 | > 10 | > 10 | > 10 | > 30 | > 30 | > 10 | > 10 | 16 | > 10 | > 10 | > 30 | > 30 |
| CCN(CC)CCNC(=O)c1cc(Cl)c(N)cc1OC [METOCLOPRAMIDE] | > 30 | > 10 | 3 | > 30 | > 10 | > 10 | > 10 | 3.55 | 2.77 | > 30 | > 10 | > 30 | > 30 | > 10 | > 30 | 0.076 |
| CC(C)(C(=O)c1cccnc1)c1cccnc1 [METYRAPONE] | > 10 | > 10 | > 10 | > 10 | > 10 | > 10 | > 10 | > 30 | > 30 | > 10 | > 10 | > 30 | > 10 | > 10 | > 30 | > 30 |
